Data from US12509421B2, “Preparation and application of deuterated 4-phenyl-4-piperidinols” (priority 2022, dated 2025).
Structures can show the parent of a compound that is named as a salt. Where two headings read alike, the source gives them in different places.

Legend:
Female Kunming mice = assay: Hot plate analgesia test in mice; format: in vivo; details: intraperitoneal, 55° C. hot plate; for ED50: Mus musculus, ip
Description: Female Kunming mice weighing about 20 g are placed on a hot plate instrument preheated to 55° C., and the latency of licking hind feet or lifting hind feet is used as the pain threshold index. Animals are screened before the experiment, and animals with latency less than 5 s or more than 30 s are excluded. To prevent foot burns, the longest observation time is set to 60s. The basic pain threshold is the average of two measurements, and the interval between the two measurements is 5 minutes. The pain threshold of mice in each group is determined at 15 minutes, 30 minutes, 60 minutes and 120 minutes after intraperitoneal administration. The effective percentage of analgesia (% MPE) is calculated according to the following formula
[formula] According to the effective percentage of analgesia, the ED50 value is calculated by graphpad prism 5.0 software.

κOR = target: T1, κOR (Homo sapiens, UniProt P41145); assay: Opioid receptor competitive binding test, κOR; details: compound at 10 μM; [3H]-labeled ligand; CHO cell membranes; ± SD of three measurements
T1 construct: expressed in transfected cells; host or cells: CHO cells
Description: (§1) CHO cells expressing p opioid receptor, δ opioid receptor and K opioid receptor are cultured in a 10 cm^2 Petri dish (F-12 medium+10% newborn bovine serum) for several days, and the culture solution is sucked after the cells grew to the bottom of the dish. 3 ml PBS/EDTA solution (0.1M NaCl, 0.01M NaH2PO4, 0.04% EDTA) is added for digestion for 3-5 minutes. The cells are blown with a straw to get fall off completely, collected in a 40 ml centrifuge tube, centrifuged at 5000 rpm for 5 minutes, and removed with the supernatant. The centrifuge tube is added with ice-cold homogenate (50 mM HEPES PH 7.4, 3 mM MgCl2, 1 mM EGTA). The solution and precipitate are transferred to homogenizer for homogenization; Then the homogenate is transferred into a centrifuge tube, centrifuged at 18000 rpm for 15 minutes, and centrifuged twice; the obtained precipitate is added with an appropriate amount of buffer solution of 50 mM Tris-HCl and pH 7.4, homogenized and sub-packaged in centrifuge tubes. The product is stored in a refrigerator at −70° C. for later use.
(§2) 20-30 μg expressed membrane receptor protein and [3H]-labeled ligand (1-2 nM) are added to the total binding tube, added with 1 μM of corresponding ligand to the corresponding nonspecific binding tube. Various screened opioid ligand drugs (see the drug compounds in Table 1 below) are added to the sample tube with 100 μL final volume. The sample is incubated at 30° C. for 30 minutes, and the reaction is terminated in ice water. The glass fiber filter paper gF/C (whatman) is used for negative pressure filtration on Millipore sample collector. The sample is eluted with 4 ml 50 mm tris-HCl (pH 7.4) for three times, dried with the filter paper, put in 0.5 ml Eppendorf tube and added with 0.5 ml lipophilic scintillation liquid. The radioactive intensity is measured with PERKIN ELMER PRI-CARB 2910 liquid scintillation counter with calculation of the inhibition rate. The experiment is repeated for more than three times, with three compound tubes in each group. Inhibition rate(or binding rate)=(total binding rate dpm−sample tube dpm)/(total binding tube dpm-nonspecific binding tube dpm)×100%
(§3) IC50 is calculated with Prism 5.0 software. The Ki value is calculated according to the following formula: Ki=IC50/(1^+[L]/Kd), wherein [L] is the concentration of the added labeled ligand, and Kd is the equilibrium dissociation parameter of the labeled ligand.

δOR = target: T2, δOR (Homo sapiens, UniProt P41143); assay: Opioid receptor competitive binding test, δOR; details: compound at 10 μM; [3H]-labeled ligand; CHO cell membranes; ± SD of three measurements
T2 construct: expressed in transfected cells; host or cells: CHO cells
Description: as §1, §2, §3

hERG potassium channel = hERG potassium channel (Homo sapiens, UniProt Q12809); assay: hERG potassium channel whole-cell patch clamp (HEK293); format: cell-based; design: expressed in transfected cells; host or cells: HEK293 cell line; details: for IC50: HEK293 cells stably expressing hERG, whole-cell patch clamp, room temperature, read-out: Half-inhibition concentration of compounds to be tested on hERG (IC50)
Source text: The rapidly activated potassium channel encoded by human ether-a-go-go-related gene (hERG) is an important ion channel involved in the formation of phase 3 repolarization of myocardial action potential. […] Drug-induced delayed ventricular repolarization may cause fatal arrhythmia-torsade de pointes in some cases. According to statistics, about 25-40% of the lead compounds show different degrees of hERG-related toxicity, and many drugs are withdrawn from the market because they may lead to the risk of QT interval extension. At present, National Medical Products Administration also requires hERG/IKr safety evaluation data before clinical trial application (IND) of new drugs under study. • 1. Whole-cell patch clamp technique is used to study the inhibitory effect of compounds on hERG potassium channels: • 1) the compound to be tested is stored with physiological saline prepared into 10 mM liquid. The test stock solution is diluted with physiological saline into 3 mM, 1 mM and 0.3 mM diluents in turn. […] The old culture medium removed and is washed once with PBS, then added with 1 mL TrypLE™ Express solution and incubated at 37° C. for about 0.5 minutes. When the cells are detached from the bottom of the dish, about 5 ml complete medium preheated is added at 37° C. The cell suspension is gently blown with a straw to separate the aggregated cells. The cell suspension is transferred to a sterile centrifuge tube and centrifuged at 1000 rpm for 5 minutes to collect cells. […] The clamping voltage is depolarized from −80 mV to −50 mV for 0.5 seconds (as leakage current detection), then stepped to 30 mV for 2.5 seconds, and then quickly recovered to −50 mV for 4 seconds, which can excite the tail current of hERG channel. Data are collected repeatedly every 10s to observe the effect of drugs on hERG tail current. 0.5 seconds-50 mV stimulation is used as leakage current detection. The test data are collected by IPA amplifier (Sutter Instrument) and stored in SutterPatch software.
Capillary glass tube is drawn into recording electrode by microelectrode drawing instrument. Under the inverted microscope, the microelectrode manipulator is operated to contact the recording electrode with the cell, and negative pressure suction is given to form a GΩ seal. After the GΩ seal is formed, rapid capacitance compensation is carried out, and then negative pressure is continuously applied to break the cell membrane, forming a whole cell recording mode. Then the slow capacitance is compensated and the film capacitance and series resistance are recorded. No leakage compensation is given.
When the hERG current recorded in the whole cell is stable, the drug is administered, and the next concentration is detected after each drug concentration acts for 5 minutes (or the current is stable), and multiple concentrations are detected for each test compound. The cover glass covered with cells is placed in the recording bath in an inverted microscope, and the test compound and the external liquid containing no compound flowed through the recording bath from low concentration to high concentration by gravity perfusion method, so as to act on the cells, and liquid exchange is carried out by using a vacuum pump during recording. The current detected by each cell in the external fluid without compounds is used as its own control group.
At least two cells are used to detect each concentration independently and repeatedly twice. All electrophysiological tests are conducted at room temperature.
Firstly, the current after each drug concentration and the blank control current are standardized
[formula] followed by the calculation of the inhibition rate
[formula] corresponding to each drug concentration, the average and standard deviation for each concentration, and the semi-inhibition concentration of each compound with the following equation: […]
The dose-dependent effect is nonlinear fitted by the above equation, and IC50 is semi-inhibitory concentration.

μOR = target: T3, μOR (Homo sapiens, UniProt P35372); assay: Opioid receptor competitive binding test, μOR; details: compound at 10 μM; [3H]-labeled ligand; CHO cell membranes; ± SD of three measurements
T3 construct: expressed in transfected cells; host or cells: CHO cells
Description: as §1, §2, §3

CYP 3A4 = CYP 3A4 (Homo sapiens, UniProt P08684); details: read-out: CYP 3A4 IC50, human liver microsomes
CYP 2C9 = CYP 2C9 (Homo sapiens, UniProt P11712); assay: Inhibition of cytochrome P450 enzyme in human liver microsomes, CYP 2C9; details: read-out: CYP 2C9 IC50; human liver microsomes; substrate Diclofenac
CYP 2C19 = CYP 2C19 (Homo sapiens, UniProt P33261); assay: Inhibition of cytochrome P450 enzyme in human liver microsomes, CYP 2C19; details: read-out: CYP 2C19 IC50; human liver microsomes; substrate (S)-mephenytoin
CYP 1A2 = target: T4, CYP 1A2 (Homo sapiens, UniProt P05177); assay: Inhibition of cytochrome P450 enzyme in human liver microsomes, CYP 1A2; details: read-out: CYP 1A2 IC50; human liver microsomes; substrate Finacetin
T4 sequence (P05177 1-516): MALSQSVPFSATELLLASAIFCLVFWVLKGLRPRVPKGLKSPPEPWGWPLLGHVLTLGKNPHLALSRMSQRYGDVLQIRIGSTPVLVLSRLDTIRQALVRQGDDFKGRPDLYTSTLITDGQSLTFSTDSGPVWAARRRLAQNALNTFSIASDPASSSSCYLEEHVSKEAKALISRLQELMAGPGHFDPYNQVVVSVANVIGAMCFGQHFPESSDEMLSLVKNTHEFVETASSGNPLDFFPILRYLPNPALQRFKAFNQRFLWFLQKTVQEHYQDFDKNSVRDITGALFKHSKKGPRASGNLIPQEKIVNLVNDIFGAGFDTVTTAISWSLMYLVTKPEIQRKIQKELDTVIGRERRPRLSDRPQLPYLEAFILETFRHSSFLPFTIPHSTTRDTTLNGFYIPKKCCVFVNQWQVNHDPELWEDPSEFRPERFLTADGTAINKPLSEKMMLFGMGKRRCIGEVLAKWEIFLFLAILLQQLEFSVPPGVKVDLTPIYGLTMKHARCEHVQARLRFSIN

CYP 2D6 = CYP 2D6 (Homo sapiens, UniProt P10635); assay: Inhibition of cytochrome P450 enzyme in human liver microsomes, CYP 2D6; details: read-out: CYP 2D6 IC50; human liver microsomes; substrate Dextromethorphan

Row | Compound | Maximum analgesic effective percentage (% MPE), hot plate (Female Kunming mice; 10 mg/kg) | κOR binding rate (κOR) | δOR binding rate (δOR) | hERG inhibition grade (hERG potassium channel) | IC50 (hERG potassium channel) | μOR binding rate (μOR) | ED50 (Female Kunming mice) | IC50 (CYP 3A4; substrate midazolam) | IC50 (CYP 3A4; substrate testosterone) | IC50 (CYP 2C9) | IC50 (CYP 2C19) | IC50 (CYP 1A2) | IC50 (CYP 2D6) | ED50, hot plate (Female Kunming mice)
1 | [2H]C([2H])([2H])N(CC1CN(C(=O)Cc2cc(F)c(F)cc2F)CCC1(O)c1cccc(OC)c1)C([2H])([2H])[2H] (stereo not drawn) [I-8hydrochloride] | 100% | 16.4 ± 2.6% | 8.2 ± 0.9% | μM((Weak inhibition) | 16.8 µM | 22.8 ± 2.8% | – | – | – | – | – | – | – | –
2 | [2H]C([2H])([2H])Oc1cccc(C2(O)CCN(S(=O)(=O)Cc3ccccc3)CC2CN(C([2H])([2H])[2H])C([2H])([2H])[2H])c1 (stereo not drawn) [I-3hydrochloride] | – | 14.9 ± 0.9% | 8.6 ± 1.2% | μM((Weak inhibition) | 16.6 µM | 22.75 ± 2.3% | 0.82 mg/kg | – | – | – | – | – | – | –
3 | COc1cccc([C@]2(O)CCN(S(=O)(=O)Cc3ccccc3)C[C@H]2CN(C)C)c1.Cl [Example 20 of CN201911076305.X, (3R, 4S)-1-(benzylsulfonyl)-3-(dimethylamino)methyl)-4-(3-methoxyphenyl)-4-piperidinol hydrochloride, reference compound] | – | – | – | – | – | – | – | 32.3 µM | 46.4 µM | > 50 µM | > 50 µM | > 50 µM | 9.61 µM | –
4 | 1-(4-hydroxy-4-(3-methoxyphenyl)-3-(((methyl-d3)amino)methyl)-1-piperidinyl)-2(2,4,5-trifluorophenyl)ethyl-1-one [I-5hydrochloride] | – | 19.1 ± 1.2% | 12.5 ± 2.9% | μM((Weak inhibition) | 13.5 µM | 22.6 ± 1.7% | – | – | – | – | – | – | – | 0.75 mg/kg
5 | [2H]C([2H])([2H])Oc1cccc(C2(O)CCN(C(=O)Cc3cc(F)c(F)cc3F)CC2CN(C([2H])([2H])[2H])C([2H])([2H])[2H])c1 (stereo not drawn) [I-7hydrochloride] | – | 15.9 ± 0.7% | 9.9 ± 0.5% | μM((Weak inhibition) | 21.6 µM | 20.7 ± 2.2% | 0.89 mg/kg | – | – | – | – | – | – | –
6 | [2H]C([2H])([2H])N(C)CC1CN(S(=O)(=O)Cc2ccccc2)CCC1(O)c1cccc(OC)c1 (stereo not drawn) [I-1hydrochloride] | – | 22.5 ± 3.2% | 11.4 ± 1.7% | μM((Weak inhibition) | 12.9 µM | 23.95 ± 3.8% | 0.62 mg/kg | – | – | – | – | – | – | –
